Measurements: publication PMC6522912, “Evaluation of the published kinase inhibitor set to identify multiple inhibitors of bacterial ATP-dependent mur ligases” (Journal of Enzyme Inhibition and Medicinal Chemistry, 2019)
Read-outs that look alike come from different tables or passages of the source.

What was measured:
E. coli MurF = E. coli MurF (Escherichia coli, UniProt P11880); experiment: biochemical; conditions: for remaining activity at 100 µM: 0.25 h, read-out: RA [%] at 100 µM MurF; for RA (%) MurF: Table S3, aza stilbene compounds
Protocol: (§1) Inhibition of the Mur ligases was determined using the malachite green assay, with slight modifications.
(§2) In all cases, the final concentration of DMSO was 5% (v/v). After incubation for 15 min at 37 °C, the enzyme reaction was terminated by addition of 100 µM Biomol green reagent, and the absorbance was measured at 650 nm after 5 min. All of the experiments were run in duplicate. Residual activities were calculated with respect to control assays without the tested compounds, but with the 5% DMSO carrier.
(§3) The published kinase inhibitor set compounds were evaluated for inhibition of MurC, D and F ligases from E. coli using the Malachite green assay, which detects orthophosphate generated during enzymatic reactions. To avoid non-specific inhibition due to aggregate formation, all of the compounds were tested in the presence of detergent (0.005% Triton-X114). The data are presented as the residual activities of these Mur ligases in the presence of 100 µM of each test compound (Supporting Information Table S1). […] Additionally, regarding the data of profiled compounds in large panels of human kinase assays[41]

E. coli MurC = E. coli MurC (Escherichia coli, UniProt P17952); experiment: Malachite green inhibition assay, MurC; format: biochemical; conditions: for remaining activity at 100 µM: 0.25 h; for RA (%) MurC: Table S3, aza stilbene compounds
Protocol: as §1, §2, §3

E. coli MurD = E. coli MurD (Escherichia coli, UniProt P14900); experiment: biochemical; conditions: for remaining activity at 100 µM: 0.25 h, Table S1, PKIS screening, read-out: RA [%] at 100 µM MurD
Protocol: as §1, §2
The published kinase inhibitor set compounds were evaluated for inhibition of MurC, D and F ligases from E. coli using the Malachite green assay, which detects orthophosphate generated during enzymatic reactions. To avoid non-specific inhibition due to aggregate formation, all of the compounds were tested in the presence of detergent (0.005% Triton-X114). The data are presented as the residual activities of these Mur ligases in the presence of 100 µM of each test compound (Supporting Information Table S1).

[1] = Table S1, PKIS screening, read-out: RA [%] at 100 µM MurC
[2] = read-out: RA [%] at 100 µM MurC, Table S1, PKIS screening

E. coli MurD, sequence (P14900 whole entry): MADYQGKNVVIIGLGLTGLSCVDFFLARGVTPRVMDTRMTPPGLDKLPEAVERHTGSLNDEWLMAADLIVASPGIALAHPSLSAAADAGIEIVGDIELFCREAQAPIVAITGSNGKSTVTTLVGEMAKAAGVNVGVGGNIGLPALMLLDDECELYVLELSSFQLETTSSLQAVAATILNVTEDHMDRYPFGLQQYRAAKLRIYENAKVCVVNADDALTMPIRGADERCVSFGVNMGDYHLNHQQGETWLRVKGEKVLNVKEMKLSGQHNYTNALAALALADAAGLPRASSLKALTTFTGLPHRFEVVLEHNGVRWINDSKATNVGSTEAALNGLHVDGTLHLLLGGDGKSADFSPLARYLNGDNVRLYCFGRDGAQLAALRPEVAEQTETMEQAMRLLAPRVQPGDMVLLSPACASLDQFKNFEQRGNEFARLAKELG
E. coli MurF, sequence (P11880 whole entry): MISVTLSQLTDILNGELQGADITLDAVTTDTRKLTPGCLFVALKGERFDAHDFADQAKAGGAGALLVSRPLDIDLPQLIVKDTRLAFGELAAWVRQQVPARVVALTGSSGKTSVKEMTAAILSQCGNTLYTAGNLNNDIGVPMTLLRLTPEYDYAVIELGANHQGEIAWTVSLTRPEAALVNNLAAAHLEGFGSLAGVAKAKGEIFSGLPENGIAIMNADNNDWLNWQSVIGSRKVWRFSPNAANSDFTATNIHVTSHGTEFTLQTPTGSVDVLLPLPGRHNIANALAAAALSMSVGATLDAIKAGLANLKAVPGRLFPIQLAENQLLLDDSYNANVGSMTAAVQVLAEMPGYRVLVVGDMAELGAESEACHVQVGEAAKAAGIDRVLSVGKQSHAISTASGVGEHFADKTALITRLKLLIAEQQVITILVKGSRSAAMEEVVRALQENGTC
E. coli MurC, sequence (P17952 whole entry): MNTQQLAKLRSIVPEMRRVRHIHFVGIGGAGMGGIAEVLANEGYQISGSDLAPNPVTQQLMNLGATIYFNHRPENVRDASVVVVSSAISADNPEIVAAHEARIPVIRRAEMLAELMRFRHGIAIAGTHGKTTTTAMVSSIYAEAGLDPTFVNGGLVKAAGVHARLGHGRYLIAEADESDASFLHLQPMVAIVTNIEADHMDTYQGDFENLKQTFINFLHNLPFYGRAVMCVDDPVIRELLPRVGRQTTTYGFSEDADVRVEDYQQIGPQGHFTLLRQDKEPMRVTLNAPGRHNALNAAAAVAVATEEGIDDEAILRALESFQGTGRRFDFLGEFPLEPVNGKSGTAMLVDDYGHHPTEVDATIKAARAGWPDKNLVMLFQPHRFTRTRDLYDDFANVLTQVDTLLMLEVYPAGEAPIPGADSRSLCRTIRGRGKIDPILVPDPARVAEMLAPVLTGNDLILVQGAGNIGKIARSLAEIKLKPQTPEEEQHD

SMILES | remaining activity at 100 µM (E. coli MurF; Table S1, PKIS screening) | remaining activity at 100 µM (E. coli MurC; [1]) | remaining activity at 100 µM (E. coli MurD) | other results
N#Cc1c(NC(=O)c2ccccc2F)sc2c1CCCC2 [GW572738X] | 100% | 88% | 91% | 
CS(=O)(=O)CCNCc1cc(-c2cc3c(Nc4ccc(OCc5cccc(F)c5)c(Cl)c4)ncnc3s2)cs1 [GSK300014A] | 95% | 88% | 91% | 
NS(=O)(=O)c1ccc(N/N=C2\C(=O)Nc3ccc(C(=O)NCCc4c[nH]cn4)cc32)cc1 [GW300660X] | 96% | 58% | 90% | 
COc1cc(Nc2nccc(Nc3ccc4c(C)n[nH]c4c3)n2)cc(OC)c1OC [GW612286X] | 100% | 86% | 94% | 
CCn1c(-c2nonc2N)nc2c(C#CC(C)(C)O)nc(OCCNC)cc21 [GSK949675A] | 74% | 73% | 85% | 
CCn1c(-c2nonc2N)nc2c(C#CCN)ncc(OCCCN)c21 [GSK561866B] | 66% | 52% | 82% | 
COc1ccc(-c2nn3ncccc3c2-c2ccnc(Nc3ccc(F)c(F)c3)n2)cc1 [GW827396X] | 61% | 79% | 61% | 
COc1cc2ncn(-c3cc(OCc4ccccc4C(F)(F)F)c(C(N)=O)s3)c2cc1OC [GW843682X] | 83% | 65% | 82% | 
Fc1ccc(-c2c(-c3ccncc3)nc3n2CCS3)cc1 [SKF-86055] | 89% | 98% | 91% | 
COc1cc2ncn(-c3cc(OCCc4ccccc4)c(C(N)=O)s3)c2cc1OC [GSK204925A] | 63% | 56% | 68% | 
COc1cc2ncn(-c3cc(OCc4ccccc4S(C)(=O)=O)c(C#N)s3)c2cc1OC [GSK319347A] | 75% | 59% | 100% | 
Fc1ccc(-c2ncn(C3CCNCC3)c2-c2ccnc(Oc3ccc4c(c3)OCO4)n2)cc1 [SB-250715] | 85% |  | 65% | remaining activity at 100 µM (E. coli MurC; [2]): 51%
CNC(=O)c1cncc(C=Cc2c(Cl)cccc2Cl)c1 [Compound 10] |  |  |  | RA (%) MurF (E. coli MurF): 77%; RA (%) MurC (E. coli MurC): 81%; RA (%) MurD (E. coli MurD): 80%
CCS(=O)(=O)c1ccc(OC)c(Nc2ncc(-c3cccc(OC)c3)o2)c1 [GW580509X] | 93% | 100% | 82% | 
CNC(=O)c1cncc(/C=C/c2c(C)cccc2C)c1 [GW445012X] | 54% | 85% | 83% | 
COc1cccc(-n2ncc3c(N/N=C/c4cccc(F)c4)ncnc32)c1 [GW817394X] | 46% | 64% | 81% | 
NS(=O)(=O)c1ccc(N/C=C2\C(=O)Nc3ccc4ncsc4c32)cc1 [GW297361X] | 86% | 107% | 76% | 
CN1CCN(Cc2ccc(-c3cc4ncnc(Nc5ccc(OCc6cccc(F)c6)c(Cl)c5)c4s3)o2)CC1 [GW784684X] | 56% | 20% | 52% | 
Cc1cccc(Nc2ncc(-c3ccccc3)o2)c1 [GW632046X] | 97% | 100% | 84% | 

SMILES | remaining activity at 100 µM (E. coli MurF; Table S1, PKIS screening) | remaining activity at 100 µM (E. coli MurC; [1]) | remaining activity at 100 µM (E. coli MurD) | other results
Nc1nccc(-c2c(-c3ccc(F)cc3)ncn2CCCN2CCOCC2)n1 [SB-216385] | 98% | 77% | 96% | 
CC(C)COC(=O)c1ccc2c(c1)/C(=C/Nc1ccc(S(N)(=O)=O)cc1)C(=O)N2 [GW416981X] | 67% | 60% | 100% | 
Nc1nccc(-c2c(-c3ccc(F)cc3)ncn2C2CCNCC2)n1 [SB-220025-A] |  |  |  | RA [%] at 100 µM MurF (E. coli MurF; Table S1, PKIS screening): 96%; RA [%] at 100 µM MurC (E. coli MurC; Table S1, PKIS screening): 98%; RA [%] at 100 µM MurD (E. coli MurD): 99
COC(=O)Nc1nc2ccc(Sc3ccc(NC(=O)Nc4cc(C(F)(F)F)ccc4F)cc3)cc2[nH]1 [GW607049C] | 91% | 62% | 80% | 
COc1ccc2cc(-c3c(-c4ccncc4)nc(-c4ccc(S(C)(=O)=O)cc4C)n3C)ccc2c1 [SB-633825] | 56% | 36% | 69% | 
Cc1nnc(-c2cccc(-c3ccc(C(=O)NCC4CC4)cc3)c2)o1 [GW734508X] | 74% | 89% | 100% | 
COC(=O)c1cncc(C=Cc2c(C)cc(O)cc2C)c1 [Compound 15] |  |  |  | RA (%) MurF (E. coli MurF): 81%; RA (%) MurC (E. coli MurC): 98%; RA (%) MurD (E. coli MurD): 69%
NC(=O)c1sc(-n2cnc3ccc(C(F)(F)F)cc32)cc1OCc1ccccc1Br [GW853606X] | 75% | 64% | 86% | 
Cc1ccc2c(-c3ccnc(Nc4ccc5c(c4)OCCO5)n3)c(-c3ccc(C(F)(F)F)cc3)nn2n1 [GW832467X] | 73% |  | 62% | remaining activity at 100 µM (E. coli MurC; [2]): 22%
NS(=O)(=O)c1ccc(N/N=C2\C(=O)Nc3ccc(Cl)cc32)cc1 [GW280670X] | 76% | 100% | 99% | 
CS(=O)(=O)CCNCc1ccc(-c2ccc3ncnc(Nc4ccc(OCc5cccc(F)c5)c(C(F)(F)F)c4)c3c2)o1 [GW576484X] | 100% | 100% | 55% | 
O=C(Nc1ccc(Oc2ccc3nc(NC(=O)c4ccccc4)[nH]c3c2)cc1)Nc1cc(C(F)(F)F)ccc1F [GW709042A] | 100% | 100% | 95% | 
Fc1cccc(COc2ccc(Nc3ncncc3C#Cc3ccccc3)cc2Cl)c1 [GW651576X] | 91% | 44% | 43% | IC50 (E. coli MurC; printed in the RA cell of Table S1, read-out: IC50 MurC): 120 µM; IC50 (E. coli MurD; printed in the RA cell of Table S1, read-out: IC50 MurD): 90 µM
Cc1cc(-c2ccccn2)cc(C)c1/C=C/c1cncc(-c2nn[nH]n2)c1 [GW459057A] | 76% | 59% | 83% | 
FC(F)(F)c1ccc(-c2nn3ncccc3c2-c2ccnc(Nc3ccc4c(c3)OCCO4)n2)cc1 [GW828525X] | 47% |  | 90% | remaining activity at 100 µM (E. coli MurC; [2]): 21%
Nc1nccc(C#Cc2cncnc2Nc2ccc(OCc3cccc(F)c3)c(Cl)c2)n1 [GW799251X] | 0% | 33% | 50% | 
CNC(=O)c1cncc(/C=C/c2ccccc2Cl)c1 [GW445017X] | 90% | 68% | 87% | 
CN1CCC(C(=O)Nc2n[nH]c3nc(-c4ccc(O)cc4)c(Br)cc23)CC1 [SB-732881] | 90% | 71% | 84% | 
